Consider eleven compounds from US20200405697A1, “Antitumor Agent” (Taiho Pharmaceutical Co., Ltd, priority 2017, published 2020).

The target in this assay is T1, human RNR (histidine tagged human M1 and human M2 proteins) (Homo sapiens, UniProt P23921).
T1 construct: made in house; host or cells: Escherichia coli
T1 sequence (P23921 1-792): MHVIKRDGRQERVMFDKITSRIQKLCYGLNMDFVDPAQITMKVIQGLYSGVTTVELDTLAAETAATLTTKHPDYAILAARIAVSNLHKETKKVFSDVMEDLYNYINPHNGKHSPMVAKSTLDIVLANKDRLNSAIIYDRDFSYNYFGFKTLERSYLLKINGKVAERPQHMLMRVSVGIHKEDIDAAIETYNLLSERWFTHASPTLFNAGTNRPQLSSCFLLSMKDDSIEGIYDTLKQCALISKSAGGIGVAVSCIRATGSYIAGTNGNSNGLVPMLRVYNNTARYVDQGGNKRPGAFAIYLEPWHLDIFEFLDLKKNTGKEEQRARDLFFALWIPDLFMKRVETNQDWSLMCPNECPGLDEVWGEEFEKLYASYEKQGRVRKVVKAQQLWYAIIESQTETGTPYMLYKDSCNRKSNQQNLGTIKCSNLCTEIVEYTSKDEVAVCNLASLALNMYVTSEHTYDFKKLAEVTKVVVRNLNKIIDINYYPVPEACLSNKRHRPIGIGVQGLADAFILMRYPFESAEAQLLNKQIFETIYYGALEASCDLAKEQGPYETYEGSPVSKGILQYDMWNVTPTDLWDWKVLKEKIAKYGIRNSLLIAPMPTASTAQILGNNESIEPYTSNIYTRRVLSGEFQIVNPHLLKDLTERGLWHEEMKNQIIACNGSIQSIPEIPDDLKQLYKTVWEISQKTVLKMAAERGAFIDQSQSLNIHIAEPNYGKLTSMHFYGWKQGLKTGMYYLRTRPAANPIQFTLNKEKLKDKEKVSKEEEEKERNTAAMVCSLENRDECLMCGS
In words: Human RNR inhibition effect (dCDP formation from CDP). The note with it: 10 μM CDP, 37° C. for 30 minutes, read-out: RNR inhibitory activity IC50. The class given is biochemical. The gist of the method:
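His-tagged human M1 (isoform 1) and N-terminal 59-aa-truncated M2 (isoform 2), E. coli-expressed, Ni-purified, preincubated 20 min with compound (1% DMSO). Reaction with 10 μM CDP, 2 mM ATP, 0.24 mM NADPH, 6 mM DTT, 4 mM Mg acetate, 100 mM KCl, 50 mM HEPES pH 7.2, 30 min at 37° C. dCDP formed quantified by reverse-phase HPLC after heat stop.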

For the compound `Cc1c(Cl)ccc(F)c1[C@@H](C)[C@H](NS(=O)(=O)c1ncc(Cl)cc1C(N)=O)c1n[nH]c(=O)o1` [Example 249, 5-chloro-2-(N-((1S,2R)-2-(3-chloro-6-fluoro-2-methylphenyl)-1-(5-oxo-4,5-dihydro-1,3,4-oxadiazol-2-yl)propyl)sulfamoyl)nitotinamide], the 50% inhibitory concentration (IC50) was determined as 100 nM.

`Cc1ccc(F)c([C@@H](C)[C@H](NS(=O)(=O)c2ncc(Br)cc2C(N)=O)c2n[nH]c(=O)o2)c1C` [Example 250, 5-bromo-2-(N-((1S,2R)-2-(6-fluoro-2,3-dimethylphenyl)-1-(5-oxo-4,5-dihydro-1,3,4-oxadiazol-2-yl)propyl)sulfamoyl)nicotinamide]: the IC50 was found to be 20 nM. As for `CNC(=O)c1cc(Br)cnc1S(=O)(=O)N[C@H](c1n[nH]c(=O)o1)[C@H](C)c1c(F)ccc(C)c1C` [Example 251, 5-bromo-2-(N-((1S,2R)-2-(6-fluoro-2,3-dimethylphenyl)-1-(5-oxo-4,5-dihydro-1,3,4-oxadiazol-2-yl)propyl)sulfamoyl)-N-methylnicotinamide], the figure is 250 nM; as for `CNC(=O)c1nc(S(=O)(=O)N[C@H](c2n[nH]c(=O)o2)[C@H](C)c2c(F)ccc(C)c2C)ccc1Cl` [Example 252, 3-chloro-6-(N-((1S,2R)-2-(6-fluoro-2,3-dimethylphenyl)-1-(5-oxo-4,5-dihydro-1,3,4-oxadiazol-2-yl)propyl)sulfamoyl)-N-methylpicolinamide], 60 nM. As to `Cc1ccc(F)c([C@@H](C)[C@H](NS(=O)(=O)c2ccc(Cl)c(C(=O)N(C)C)n2)c2n[nH]c(=O)o2)c1C` [Example 253, 3-chloro-6-(N-((1S,2R)-2-(6-fluoro-2,3-dimethylphenyl)-1-(5-oxo-4,5-dihydro-1,3,4-oxadiazol-2-yl)propyl)sulfamoyl)-N,N-dimethylpicolinamide], the IC50 was found to be 80 nM.

Take `Cc1c(Cl)ccc(F)c1[C@@H](C)[C@H](NS(=O)(=O)c1ncc(Br)cc1C(N)=O)c1n[nH]c(=O)o1` [Example 254, 5-bromo-2-(N-((1S,2R)-2-(3-chloro-6-fluoro-2-methylphenyl)-1-(5-oxo-4,5-dihydro-1,3,4-oxadiazol-2-yl)propyl)sulfamoyl)nicotinamide]: the 50% inhibitory concentration (IC50) was found to be 70 nM. As for `Cc1ccc(F)c([C@@H](C)[C@H](NS(=O)(=O)c2cc(F)c(Cl)cc2C(N)=O)c2n[nH]c(=O)o2)c1C` [Example 255, 5-chloro-4-fluoro-2-(N-((1S,2R)-2-(6-fluoro-2,3-dimethylphenyl)-1-(5-oxo-4,5-dihydro-1,3,4-oxadiazol-2-yl)propyl)sulfamoyl)benzamide], the figure is 120 nM; as for `Cc1ccc(F)c([C@@H](C)[C@H](NS(=O)(=O)c2c(Cl)cc(Cl)cc2C(N)=O)c2n[nH]c(=O)o2)c1C` [Example 256, 3,5-dichloro-2-(N-((1S,2R)-2-(6-fluoro-2,3-dimethylphenyl)-1-(5-oxo-4,5-dihydro-1,3,4-oxadiazol-2-yl)propyl)sulfamoyl)benzamide], 420 nM. On to `Cc1cc(S(=O)(=O)N[C@H](c2n[nH]c(=O)o2)[C@H](C)c2c(F)ccc(C)c2C)c(C(N)=O)cc1Cl` [Example 257, 5-chloro-2-(N-((1S,2R)-2-(6-fluoro-2,3-dimethylphenyl)-1-(5-oxo-4,5-dihydro-1,3,4-oxadiazol-2-yl)propyl)sulfamoyl)-4-methylbenzamide], for which the IC50 was 100 nM.

In the case of `Cc1ccc(F)c([C@@H](C)[C@H](NS(=O)(=O)c2c(F)cc(Cl)cc2C(N)=O)c2n[nH]c(=O)o2)c1C` [Example 258, 5-chloro-3-fluoro-2-(N-((1S,2R)-2-(6-fluoro-2,3-dimethylphenyl)-1-(5-oxo-4,5-dihydro-1,3,4-oxadiazol-2-yl)propyl)sulfamoyl)benzamide], the 50% inhibitory concentration (IC50) came out at 140 nM. Turning to `COc1cc(S(=O)(=O)N[C@H](c2n[nH]c(=O)o2)[C@H](C)c2c(F)ccc(C)c2C)c(C(N)=O)cc1Cl` [Example 259, 5-chloro-2-(N-((1S,2R)-2-(6-fluoro-2,3-dimethylphenyl)-1-(5-oxo-4,5-dihydro-1,3,4-oxadiazol-2-yl)propyl)sulfamoyl)-4-methoxybenzamide], the IC50 is 100 nM.
